Results published in patent US20250339409A1, “USES OF PAN BET INHIBITORS” (VYNE THERAPEUTICS INC., priority 2021, published 2025).

Test system: imiquimod-induced psoriasis
Assay: Imiquimod-induced psoriasis (Th17 inflammation) model in mice, topical treatment once daily D7-D13: PASI, modified PASI, body weight, use of enrichment, TEWL
Format: in vivo
Set-up: key to Mean score use enrichment: 0 = no use of dental rolls to 4 = use of all 4; key to PASI Mean score values: sum of erythema, induration, peeling scores, each 0-3 (0 = none)
Conditions: imiquimod-induced mice
Description: Thirty-six (36) female Balb/c mice are weighed and randomly divided into 9 groups (n=4) according to body weight on D1. For mice of native group 1 and tolerance groups 8 and 9, no induction of psoriasis is performed between D1 and D13. Psoriasis is induced in groups 2 to 7 by once daily topical application for 13 days (from day 1 to day 13) of 65 mg of Aldara™ cream (5.0% imiquimod) onto the shaved and epilated back of mice. Before the first treatment, a second randomization of mice of the 6 imiquimod-induced psoriasis groups is performed according to the severity of psoriasis (PASI), and also the body weight of mice. Starting on day 7 and until day 13, 100 mg of test formulations […] and 65 mg of vehicle (groups 1 and […]) are topically administered once daily for 7 consecutive days onto the shaved back skin of mice. Several measurements are taken during treatment period from day 7 to day 14: psoriasis index (PASI), body weight, use of enrichment and mortality. At the end of treatment period, TEWL is assessed, and blood and skin samples are collected. Histological analysis of skin samples is used for microscopic scoring of psoriasis and the determination of the thickness of parakeratosis and epidermis and blood analysis is used for assessing the level of proinflammatory biomarkers (cytokines assays). The effect of treatment of psoriasis induced mice with BETi formulations at the four dose levels are compared with Dermoval® cream containing 0.05% clobetasol propionate (reference) and vehicle (positive control) and also with healthy mice treated with vehicle (negative control).
PASI scoring takes into account the following 3 parameters: the presence of erythema on the skin, induration of the skin (thickening) and peeling of the skin at the area of the induction of psoriasis.
The presence of erythema on the skin at the area of induction of psoriasis with the following scoring grid: • 0=no or no more erythema on the skin, • 1=weak erythema on the skin, • 2=moderate erythema on the skin, • 3=important erythema on the skin.
The presence of induration of the skin at the area of induction of psoriasis with the following scoring grid: • 0=no or no more induration of the skin, • 1=weak induration of the skin, • 2=moderate induration of the skin, • 3=important induration of the skin.
The presence of peeling of the skin at the area of induction of psoriasis with the following scoring grid: • 0=no or no more dryness/peeling of the skin, • 1=weak dryness/peeling of the skin, • 2=moderate dryness/peeling of the skin, • 3=important dryness/peeling of the skin.
The sum of the mean scores of these 3 parameters result in the mean PASI score.
One of the issues with a steroid is that it causes skin thinning and continues to have an effect on no longer inflamed skin and the model set up and measurements above are not designed to reflect this negative effect. Therefore, a modified PASI (mPASI) is calculated in the same the manner as mean PASI score but excludes the scoring for induration (thickening of the skin).
Mice are weighed three times during the week of D1 to D7, and then daily during the week of D7 to D13, as well as on the day D14 when they are sacrificed. It should be noted that a characteristic body weight loss of mice is observed after the start of the induction of psoriasis, mainly during the first days following it. The body weight loss can reach between 10 to 15%.
For the duration of the experiment, dental rolls are used as enrichment and placed in each cage and replaced twice. Between D1 and D7, the number of dental rolls used by animals are determined twice in the morning, and are determined daily during D7 to D14, at the time of PASI or the tolerance assessment. The use of dental rolls is scored from 0=no use of dental rolls to 4=use of the 4 dental rolls. In the case where only half of a dental roll is used, a score of 0.5 is assigned. […]

Cn1cc(-c2cccc(O)c2Oc2ccccc2)c2cc[nH]c2c1=O [BETi1]
4.50: Modified PASI Mean score values (D 5, listed as BETI1 0.1%) | Modified PASI Mean score values (D 6, listed as BETI1 0.1%)
5.25: PASI Mean score values (D 5, listed as BETi1 0.01%)
7.25: PASI Mean score values (D 6, listed as BETI1 1.0%) | PASI Mean score values (D 6, listed as BETi1 0.001%)
5.00: PASI Mean score values (D 5, listed as BETi1 0.001%)
1.25: PASI Mean score values (D 2, listed as BETi1 0.001%) | Modified PASI Mean score values (D 3, listed as BETI1 0.1%) | PASI Mean score values (D 3, listed as BETI1 0.1%) | Modified PASI Mean score values (D 3, listed as BETI1 1.0%) | PASI Mean score values (D 3, listed as BETI1 1.0%) | Mean score use enrichment (D 3, listed as BETi 0.1%) | Modified PASI Mean score values (D 3, listed as BETi1 0.01%) | PASI Mean score values (D 3, listed as BETi1 0.01%) | Mean score use enrichment (D 4, listed as BETi 0.1%) | Mean score use enrichment (D 5, listed as BETi 0.001%) | Mean score use enrichment (D 6, listed as BETi 0.001%) | Mean score use enrichment (D 6, listed as BETi 0.01%)
1.00: Modified PASI Mean score values (D 2, listed as BETI1 1.0%) | PASI Mean score values (D 2, listed as BETI1 1.0%) | Modified PASI Mean score values (D 2, listed as BETi1 0.001%) | Modified PASI Mean score values (D 3, listed as BETi1 0.001%) | PASI Mean score values (D 3, listed as BETi1 0.001%) | Mean score use enrichment (D 3, listed as BETi 1.0%) | Mean score use enrichment (D 4, listed as BETi 0.001%) | Mean score use enrichment (D 4, listed as BETi 1.0%)
5.75: PASI Mean score values (D 5, listed as BETI1 0.1%)
7.00: PASI Mean score values (D 6, listed as BETI1 0.1%) | PASI Mean score values (D 6, listed as BETi1 0.01%)
0.25: Mean score use enrichment (D 2, listed as BETi 0.001%) | Modified PASI Mean score values (D 2, listed as BETi1 0.01%) | PASI Mean score values (D 2, listed as BETi1 0.01%)
4.00: Modified PASI Mean score values (D 5, listed as BETI1 1.0%) | Modified PASI Mean score values (D 5, listed as BETi1 0.001%) | Modified PASI Mean score values (D 5, listed as BETi1 0.01%)
0.50: Modified PASI Mean score values (D 2, listed as BETI1 0.1%) | PASI Mean score values (D 2, listed as BETI1 0.1%) | Mean score use enrichment (D 2, listed as BETi 0.01%) | Mean score use enrichment (D 3, listed as BETi 0.01%) | Mean score use enrichment (D 5, listed as BETi 0.1%)
0.75: Mean score use enrichment (D 2, listed as BETi 0.1%) | Mean score use enrichment (D 2, listed as BETi 1.0%) | Mean score use enrichment (D 3, listed as BETi 0.001%) | Mean score use enrichment (D 4, listed as BETi 0.01%) | Mean score use enrichment (D 5, listed as BETi 0.01%) | Mean score use enrichment (D 6, listed as BETi 0.1%)
4.75: Modified PASI Mean score values (D 6, listed as BETI1 1.0%) | Modified PASI Mean score values (D 6, listed as BETi1 0.001%) | Modified PASI Mean score values (D 6, listed as BETi1 0.01%)
5.50: PASI Mean score values (D 5, listed as BETI1 1.0%)
1.50: Mean score use enrichment (D 5, listed as BETi 1.0%) | Mean score use enrichment (D 6, listed as BETi 1.0%)
3.25: PASI Mean score values (D 4, listed as BETI1 1.0%) | PASI Mean score values (D 4, listed as BETi1 0.001%) | PASI Mean score values (D 4, listed as BETi1 0.01%)
3.00: PASI Mean score values (D 4, listed as BETI1 0.1%)
2.75: Modified PASI Mean score values (D 4)
